Reference: PubChem BioAssay (NCI)
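How tested: cells in 96-well plates exposed to compound for 48 hours at five concentrations. The concentration for 50% growth inhibition is given as GI50. Definition used: TGI = concentration required for complete inhibition of growth.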

Assays:
Test in all cases: growth of human tumour cells (NCI), 48 h
[1] = tested on: HCT-15 colon
[2] = tested on: HS 578T breast
[3] = tested on: IGROV1 ovarian
[4] = tested on: K-562 leukemia
[5] = tested on: MCF7 breast
[6] = tested on: NCI-H460 lung
[7] = tested on: OVCAR-3 ovarian
[8] = tested on: OVCAR-8 ovarian
[9] = tested on: SK-MEL-28 melanoma
[10] = tested on: T-47D breast

Work on `CC(C)c1[nH]nc2c(NCc3ccc(-c4ccccn4)cc3)nc(SCCN(C)C)nc12` yielded a GI50 [1] of 0.0872 µM, a TGI [1] of 10.9 µM and a GI50 [2] of 0.0271 µM. For the same molecule, the TGI [2] was 9.4 µM, the GI50 [3] was 0.0579 µM and the TGI [3] was 13.7 µM. The GI50 [4] was under 0.021 µM, the TGI [4] was 10.3 µM and the GI50 [5] was under 0.0218 µM. It also gave a TGI [5] of 10.5 µM, a GI50 [6] of 0.112 µM and a TGI [6] of 11.7 µM. The GI50 [7] was 0.0754 µM, the TGI [7] was 10.9 µM and the GI50 [8] was 0.0416 µM. The TGI [8] was 15.5 µM, the GI50 [9] was 0.0226 µM and the TGI [9] was 0.21 µM. It also gave a GI50 [10] of 0.0319 µM and a TGI [10] of 2.69 µM.
`C#CCOc1cccc(Nc2ncnc3cc(NC(=O)C=C)ccc23)c1` showed a GI50 [1] of 3.44 µM, a TGI [1] of over 100 µM and a GI50 [2] of 5.87 µM. It also gave a TGI [2] of 89.8 µM, a GI50 [3] of 10.7 µM and a TGI [3] of over 100 µM. It also gave a GI50 [4] of 2.79 µM, a TGI [4] of over 100 µM and a GI50 [5] of 3.65 µM. For the same molecule, the TGI [5] was over 100 µM, the GI50 [6] was 10.4 µM and the TGI [6] was over 100 µM. It also gave a GI50 [7] of 3.7 µM, a TGI [7] of 74.6 µM and a GI50 [8] of 7.72 µM. It also gave a TGI [8] of 57.8 µM, a GI50 [9] of 23 µM and a TGI [9] of over 100 µM. It also gave a GI50 [10] of 3.98 µM and a TGI [10] of over 100 µM.
For `CC(=O)CCc1ccc(Oc2c3c(nc4ccccc24)OCC3)cc1`, the GI50 [1] was 58.8 µM, the TGI [1] was over 100 µM and the GI50 [2] was 71.4 µM. It also gave a TGI [2] of over 100 µM, a GI50 [3] of over 100 µM and a TGI [3] of over 100 µM. For the same molecule, the GI50 [4] was 59.3 µM, the TGI [4] was over 100 µM and the GI50 [5] was 60.6 µM. For the same molecule, the TGI [5] was over 100 µM, the GI50 [6] was 29.4 µM and the TGI [6] was over 100 µM. The GI50 [7] was 31.6 µM, the TGI [7] was over 100 µM and the GI50 [8] was 3.76 µM. It also gave a TGI [8] of over 100 µM, a GI50 [9] of 44.9 µM and a TGI [9] of over 100 µM. For the same molecule, the GI50 [10] was 3.7 µM and the TGI [10] was 23.6 µM.
Molecule `CCC[n+]1cc2cc3c(cc2c2c1-c1cc4c(cc1C2)OCO4)OCO3` (tested in a mixture with another compound) has a GI50 [1] of 28.2 µM, a TGI [1] of over 100 µM and a GI50 [2] of 0.437 µM. It also gave a TGI [2] of 3.53 µM, a TGI [3] of 7.81 µM and a GI50 [4] of 0.581 µM. The TGI [4] was over 35 µM, the GI50 [5] was 0.468 µM and the TGI [5] was 6.34 µM. It also gave a GI50 [6] of 0.337 µM, a TGI [6] of 4.39 µM and a GI50 [7] of 0.894 µM. For the same molecule, the TGI [7] was 4.81 µM, the GI50 [8] was 0.575 µM and the TGI [8] was 12.2 µM. It also gave a GI50 [9] of 0.783 µM, a TGI [9] of 2.49 µM and a GI50 [10] of 0.267 µM. It also gave a TGI [10] of 1.61 µM.
In the case of `O=c1cc(-c2ccccc2)oc2cc(OCCCCCN3CCOCC3)cc(O)c12`, the GI50 [1] is reported as 42 µM, the TGI [1] is reported as over 100 µM and the GI50 [2] is reported as 41.3 µM. The TGI [2] was over 100 µM, the GI50 [3] was 47.4 µM and the TGI [3] was over 100 µM. It also gave a GI50 [4] of 29 µM, a TGI [4] of over 100 µM and a GI50 [5] of 88.4 µM. It also gave a TGI [5] of over 100 µM, a GI50 [6] of 90.1 µM and a TGI [6] of over 100 µM. The GI50 [7] was over 100 µM, the TGI [7] was over 100 µM and the GI50 [8] was 68.2 µM. For the same molecule, the TGI [8] was over 100 µM, the GI50 [9] was over 100 µM and the TGI [9] was over 100 µM. For the same molecule, the GI50 [10] was 42.5 µM and the TGI [10] was over 100 µM.
For `CNCC(=O)NC(CO)C(=O)NC(CO)C(=O)NC1C(C(N)=O)OC(n2ccc(N)nc2=O)C(O)C1O` (centres undefined), the GI50 [1] was 15.8 µg/mL, the TGI [1] was over 50 µg/mL and the GI50 [2] was 1.21 µg/mL. The TGI [2] was 4.42 µg/mL, the GI50 [3] was 3.33 µg/mL and the TGI [3] was 26.4 µg/mL. For the same molecule, the GI50 [4] was over 50 µg/mL, the TGI [4] was over 50 µg/mL and the GI50 [5] was over 50 µg/mL. For the same molecule, the TGI [5] was over 50 µg/mL, the GI50 [6] was 3.39 µg/mL and the TGI [6] was 31.3 µg/mL. The GI50 [7] was 8.43 µg/mL, the TGI [7] was 29.6 µg/mL and the GI50 [8] was 12.4 µg/mL. It also gave a TGI [8] of over 50 µg/mL, a GI50 [9] of 21.7 µg/mL and a TGI [9] of over 50 µg/mL. It also gave a GI50 [10] of over 50 µg/mL and a TGI [10] of over 50 µg/mL.
`OC(CN1CCCC2CCCCC21)c1cc2ccccc2c2ccccc12` (centres undefined) was tested, and the GI50 [1] was 2.15 µM, the TGI [1] was 9.23 µM and the GI50 [2] was 2.37 µM. It also gave a TGI [2] of 7.46 µM, a GI50 [3] of 2.59 µM and a TGI [3] of 8.66 µM. It also gave a GI50 [4] of 1.68 µM, a TGI [4] of 3.39 µM and a GI50 [5] of 1.84 µM. It also gave a TGI [5] of 3.51 µM, a GI50 [6] of 1.83 µM and a TGI [6] of 3.53 µM. It also gave a GI50 [7] of 2.82 µM, a TGI [7] of 8.54 µM and a GI50 [8] of 3.2 µM. The TGI [8] was 15.3 µM, the GI50 [9] was 2.06 µM and the TGI [9] was 4.36 µM. For the same molecule, the GI50 [10] was 2.16 µM and the TGI [10] was 5.71 µM.
Work on `COc1cccc(N2CCN(c3ncnc4cc[nH]c34)CC2)c1` yielded a GI50 [1] of 24.4 µM, a TGI [1] of over 100 µM and a GI50 [2] of 35.7 µM. It also gave a TGI [2] of over 100 µM, a GI50 [3] of 32.2 µM and a TGI [3] of over 100 µM. For the same molecule, the GI50 [4] was 1.26 µM, the TGI [4] was over 100 µM and the GI50 [5] was 2.65 µM. The TGI [5] was 47.4 µM, the GI50 [6] was 7.19 µM and the TGI [6] was over 100 µM. The GI50 [7] was 9.51 µM, the TGI [7] was over 100 µM and the GI50 [8] was 3.46 µM. For the same molecule, the TGI [8] was 56.1 µM, the GI50 [9] was 10.7 µM and the TGI [9] was 62.3 µM. For the same molecule, the GI50 [10] was 2.92 µM and the TGI [10] was 44.1 µM.
Molecule `NC(Cc1cccnn1)C(=O)O` (centres undefined) has a TGI [1] of over 100 µM, a TGI [2] of over 100 µM and a TGI [3] of over 100 µM. It also gave a TGI [4] of over 100 µM, a TGI [5] of over 100 µM and a TGI [6] of over 100 µM. The TGI [7] was over 100 µM, the TGI [8] was over 100 µM and the TGI [9] was over 100 µM. The TGI [10] was over 100 µM.
`O=C1C(Cl)=C(Nc2cc(Cl)ccc2O)C(=O)N1Cc1ccccc1` showed a GI50 [1] of 17 µM, a TGI [1] of 32.6 µM and a GI50 [2] of 21.7 µM. The TGI [2] was 49.6 µM, the GI50 [3] was 5.53 µM and the TGI [3] was 26.4 µM. For the same molecule, the GI50 [4] was 23.7 µM, the TGI [4] was 65.3 µM and the GI50 [5] was 21 µM. The TGI [5] was 52.9 µM, the GI50 [6] was 17.7 µM and the TGI [6] was 34.3 µM. For the same molecule, the GI50 [7] was 18.6 µM, the TGI [7] was 35.8 µM and the GI50 [8] was 17.5 µM. The TGI [8] was 36.4 µM, the GI50 [9] was 16.1 µM and the TGI [9] was 34.2 µM. For the same molecule, the GI50 [10] was 27.6 µM and the TGI [10] was over 100 µM.
